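Briefly, cells in 96-well plates were exposed to five compound concentrations for 48 h, and endpoints were estimated by linear interpolation. Here, GI50 denotes the concentration required for 50% inhibition of growth. TGI denotes the concentration required for complete inhibition of growth.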
How the values were obtained:
Assay in all cases: NCI anticancer screen, dose series, 48 h
T-47D breast = test system: T-47D breast
CAKI-1 renal = test system: CAKI-1 renal
A549 NSCLC = test system: A549 NSCLC
MDA-MB-435 = test system: MDA-MB-435
UACC-62 melanoma = test system: UACC-62 melanoma
HS 578T breast = test system: HS 578T breast
SW-620 colon = test system: SW-620 colon
PC-3 prostate = test system: PC-3 prostate
HT29 colon = test system: HT29 colon
COLO 205 colon = test system: COLO 205 colon
HOP-62 NSCLC = test system: HOP-62 NSCLC
HCC-2998 colon = test system: HCC-2998 colon
NCI-H460 lung = test system: NCI-H460 lung
KM12 colon = test system: KM12 colon
UACC-257 melanoma = test system: UACC-257 melanoma
SF-539 CNS = test system: SF-539 CNS
NCI-H23 lung = test system: NCI-H23 lung
MCF7 breast = test system: MCF7 breast
MALME-3M melanoma = test system: MALME-3M melanoma
U251 CNS = test system: U251 CNS
MOLT-4 leukemia = test system: MOLT-4 leukemia
TK-10 renal = test system: TK-10 renal
HCT-116 colon = test system: HCT-116 colon
SK-MEL-2 melanoma = test system: SK-MEL-2 melanoma
IGROV1 ovarian = test system: IGROV1 ovarian
SK-MEL-28 melanoma = test system: SK-MEL-28 melanoma
NCI/ADR-RES ovarian = test system: NCI/ADR-RES ovarian
OVCAR-5 ovarian = test system: OVCAR-5 ovarian
LOX IMVI melanoma = test system: LOX IMVI melanoma
SF-268 CNS = test system: SF-268 CNS
SK-OV-3 ovarian = test system: SK-OV-3 ovarian
HL-60(TB) leukemia = test system: HL-60(TB) leukemia
ACHN renal = test system: ACHN renal
OVCAR-8 ovarian = test system: OVCAR-8 ovarian
NCI-H522 lung = test system: NCI-H522 lung
RXF 393 renal = test system: RXF 393 renal
MDA-MB-231 breast = test system: MDA-MB-231 breast
A498 renal = test system: A498 renal
HCT-15 colon = test system: HCT-15 colon
M14 melanoma = test system: M14 melanoma
UO-31 renal = test system: UO-31 renal
SF-295 CNS = test system: SF-295 CNS
BT-549 breast = test system: BT-549 breast
K-562 leukemia = test system: K-562 leukemia
SNB-75 CNS = test system: SNB-75 CNS
RPMI-8226 leukemia = test system: RPMI-8226 leukemia
NCI-H226 lung = test system: NCI-H226 lung
CCRF-CEM leukemia = test system: CCRF-CEM leukemia
EKVX NSCLC = test system: EKVX NSCLC
OVCAR-4 ovarian = test system: OVCAR-4 ovarian
SNB-19 CNS = test system: SNB-19 CNS
SK-MEL-5 melanoma = test system: SK-MEL-5 melanoma
786-0 renal = test system: 786-0 renal
SN12C renal = test system: SN12C renal
OVCAR-3 ovarian = test system: OVCAR-3 ovarian
SR leukemia = test system: SR leukemia
DU-145 prostate = test system: DU-145 prostate

Question: For `COC(=O)c1cc2cc(-c3ccc(OC)cc3)cnc2[nH]1`, which GI50 (T-47D breast) is on record?
Answer: 0.726 µM

Question: And the TGI (T-47D breast)?
Answer: > 100 µM

Question: And the GI50 (CAKI-1 renal)?
Answer: 2.28 µM

Question: And the TGI (CAKI-1 renal)?
Answer: > 38.9 µM

Question: What about the GI50 (A549 NSCLC) of the same compound?
Answer: 1.13 µM

Question: What about the TGI (A549 NSCLC) of the same compound?
Answer: 40.3 µM

Question: And the GI50 (MDA-MB-435)?
Answer: 0.227 µM

Question: What about the TGI (MDA-MB-435) of the same compound?
Answer: 0.666 µM

Question: And the GI50 (UACC-62 melanoma)?
Answer: 1.88 µM

Question: And the TGI (UACC-62 melanoma)?
Answer: > 70.1 µM

Question: And the TGI (HS 578T breast)?
Answer: > 30.3 µM

Question: What about the GI50 (SW-620 colon) of the same compound?
Answer: 0.389 µM

Question: And the TGI (SW-620 colon)?
Answer: > 100 µM

Question: What about the GI50 (PC-3 prostate) of the same compound?
Answer: 1.26 µM

Question: And the TGI (PC-3 prostate)?
Answer: 15 µM

Question: And the GI50 (HT29 colon)?
Answer: 0.399 µM

Question: And the TGI (HT29 colon)?
Answer: 23.4 µM

Question: What about the GI50 (COLO 205 colon) of the same compound?
Answer: 0.774 µM

Question: And the GI50 (HOP-62 NSCLC)?
Answer: 2.95 µM

Question: What about the TGI (HOP-62 NSCLC) of the same compound?
Answer: 21.2 µM

Question: What about the GI50 (HCC-2998 colon) of the same compound?
Answer: 2.34 µM

Question: And the TGI (HCC-2998 colon)?
Answer: 18.9 µM

Question: What about the GI50 (NCI-H460 lung) of the same compound?
Answer: 0.565 µM

Question: And the TGI (NCI-H460 lung)?
Answer: 11.6 µM

Question: And the GI50 (KM12 colon)?
Answer: 0.418 µM

Question: And the TGI (KM12 colon)?
Answer: 12.9 µM

Question: And the GI50 (UACC-257 melanoma)?
Answer: 7.35 µM

Question: And the TGI (UACC-257 melanoma)?
Answer: > 100 µM

Question: And the GI50 (SF-539 CNS)?
Answer: 1.11 µM

Question: What about the TGI (SF-539 CNS) of the same compound?
Answer: 3.79 µM

Question: What about the GI50 (NCI-H23 lung) of the same compound?
Answer: 3.33 µM

Question: And the TGI (NCI-H23 lung)?
Answer: 24.1 µM

Question: What about the GI50 (MCF7 breast) of the same compound?
Answer: 0.452 µM

Question: And the TGI (MCF7 breast)?
Answer: > 100 µM

Question: What about the GI50 (MALME-3M melanoma) of the same compound?
Answer: 2.87 µM

Question: What about the TGI (MALME-3M melanoma) of the same compound?
Answer: 37.9 µM

Question: And the GI50 (U251 CNS)?
Answer: 0.857 µM

Question: What about the TGI (U251 CNS) of the same compound?
Answer: 16.6 µM

Question: And the GI50 (MOLT-4 leukemia)?
Answer: 1.06 µM

Question: And the TGI (MOLT-4 leukemia)?
Answer: > 100 µM

Question: And the GI50 (TK-10 renal)?
Answer: 4.26 µM

Question: And the TGI (TK-10 renal)?
Answer: 21.8 µM

Question: What about the GI50 (HCT-116 colon) of the same compound?
Answer: 0.39 µM

Question: And the TGI (HCT-116 colon)?
Answer: 11.7 µM

Question: What about the GI50 (SK-MEL-2 melanoma) of the same compound?
Answer: 2.76 µM

Question: What about the TGI (SK-MEL-2 melanoma) of the same compound?
Answer: > 67.3 µM

Question: What about the GI50 (IGROV1 ovarian) of the same compound?
Answer: 0.439 µM

Question: What about the TGI (IGROV1 ovarian) of the same compound?
Answer: 2.77 µM

Question: And the GI50 (SK-MEL-28 melanoma)?
Answer: 6.27 µM

Question: And the TGI (SK-MEL-28 melanoma)?
Answer: > 100 µM

Question: And the GI50 (NCI/ADR-RES ovarian)?
Answer: 0.36 µM

Question: What about the TGI (NCI/ADR-RES ovarian) of the same compound?
Answer: 3.41 µM

Question: What about the GI50 (OVCAR-5 ovarian) of the same compound?
Answer: 11.3 µM

Question: And the TGI (OVCAR-5 ovarian)?
Answer: 73.7 µM

Question: What about the GI50 (LOX IMVI melanoma) of the same compound?
Answer: 2.19 µM

Question: What about the TGI (LOX IMVI melanoma) of the same compound?
Answer: > 100 µM

Question: And the GI50 (SF-268 CNS)?
Answer: 2.05 µM

Question: What about the TGI (SF-268 CNS) of the same compound?
Answer: 27.7 µM

Question: What about the GI50 (SK-OV-3 ovarian) of the same compound?
Answer: 2.35 µM

Question: What about the TGI (SK-OV-3 ovarian) of the same compound?
Answer: 12.9 µM

Question: What about the GI50 (HL-60(TB) leukemia) of the same compound?
Answer: 0.767 µM

Question: And the TGI (HL-60(TB) leukemia)?
Answer: > 28.1 µM

Question: What about the GI50 (ACHN renal) of the same compound?
Answer: 7.77 µM

Question: What about the TGI (ACHN renal) of the same compound?
Answer: 57.1 µM

Question: And the GI50 (OVCAR-8 ovarian)?
Answer: 1.52 µM

Question: And the TGI (OVCAR-8 ovarian)?
Answer: 16.4 µM

Question: And the GI50 (NCI-H522 lung)?
Answer: 0.767 µM

Question: And the TGI (NCI-H522 lung)?
Answer: 5.48 µM

Question: And the GI50 (RXF 393 renal)?
Answer: 1.85 µM

Question: And the TGI (RXF 393 renal)?
Answer: 5.96 µM

Question: What about the GI50 (MDA-MB-231 breast) of the same compound?
Answer: 4.11 µM

Question: And the TGI (MDA-MB-231 breast)?
Answer: 31.2 µM

Question: And the GI50 (A498 renal)?
Answer: 1.63 µM

Question: What about the TGI (A498 renal) of the same compound?
Answer: 14.3 µM

Question: And the GI50 (HCT-15 colon)?
Answer: 0.6 µM

Question: And the TGI (HCT-15 colon)?
Answer: > 100 µM

Question: What about the GI50 (M14 melanoma) of the same compound?
Answer: 0.511 µM

Question: And the TGI (M14 melanoma)?
Answer: 7.52 µM

Question: What about the GI50 (UO-31 renal) of the same compound?
Answer: 4.06 µM

Question: And the TGI (UO-31 renal)?
Answer: 24.1 µM

Question: And the GI50 (SF-295 CNS)?
Answer: 1.32 µM

Question: And the TGI (SF-295 CNS)?
Answer: 11.4 µM

Question: And the GI50 (BT-549 breast)?
Answer: 1.08 µM

Question: And the TGI (BT-549 breast)?
Answer: > 32.2 µM

Question: What about the GI50 (K-562 leukemia) of the same compound?
Answer: 0.427 µM

Question: What about the TGI (K-562 leukemia) of the same compound?
Answer: > 100 µM

Question: What about the GI50 (SNB-75 CNS) of the same compound?
Answer: 1.68 µM

Question: What about the TGI (SNB-75 CNS) of the same compound?
Answer: 21.3 µM

Question: What about the GI50 (RPMI-8226 leukemia) of the same compound?
Answer: 1.29 µM

Question: What about the TGI (RPMI-8226 leukemia) of the same compound?
Answer: > 28 µM

Question: And the GI50 (NCI-H226 lung)?
Answer: 9.15 µM

Question: And the TGI (NCI-H226 lung)?
Answer: 57.3 µM

Question: What about the GI50 (CCRF-CEM leukemia) of the same compound?
Answer: 2.61 µM

Question: And the TGI (CCRF-CEM leukemia)?
Answer: > 100 µM

Question: And the GI50 (EKVX NSCLC)?
Answer: 5.87 µM

Question: And the TGI (EKVX NSCLC)?
Answer: > 100 µM

Question: What about the GI50 (OVCAR-4 ovarian) of the same compound?
Answer: 3.47 µM

Question: What about the TGI (OVCAR-4 ovarian) of the same compound?
Answer: > 100 µM

Question: And the GI50 (SNB-19 CNS)?
Answer: 2.27 µM

Question: And the TGI (SNB-19 CNS)?
Answer: > 64.7 µM

Question: And the GI50 (SK-MEL-5 melanoma)?
Answer: 0.922 µM

Question: What about the TGI (SK-MEL-5 melanoma) of the same compound?
Answer: 15.8 µM

Question: What about the GI50 (786-0 renal) of the same compound?
Answer: 1.64 µM

Question: What about the TGI (786-0 renal) of the same compound?
Answer: 14.6 µM

Question: What about the GI50 (SN12C renal) of the same compound?
Answer: 5.73 µM

Question: And the TGI (SN12C renal)?
Answer: > 51.6 µM

Question: What about the GI50 (OVCAR-3 ovarian) of the same compound?
Answer: 0.359 µM

Question: And the TGI (OVCAR-3 ovarian)?
Answer: 1.19 µM

Question: And the GI50 (SR leukemia)?
Answer: 0.286 µM

Question: What about the TGI (SR leukemia) of the same compound?
Answer: 21.1 µM

Question: What about the GI50 (DU-145 prostate) of the same compound?
Answer: 2.6 µM

Question: And the TGI (DU-145 prostate)?
Answer: 16 µM

From PubChem BioAssay (NCI)
